Experimental findings from patent US11753407B2, “Compounds for treating spinal muscular atrophy” (PTC Therapeutics, Inc., priority 2012, dated 2023) are described below.

Data set [1] deals with Smn protein in SMA patient fibroblast cells (GM03813). Nature of the data set: Smn protein assay in cultured cells (SMN HTRF). The conditions noted are these: SMA patient fibroblast cells, 48 hours; for EC1.5x for Smn protein expression: 7-point concentration curve, SMN HTRF, concentration producing 1.5 times Smn protein vs DMSO vehicle control; for maximum fold (Fold) increase of Smn protein: 7-point concentration data, fold relative to vehicle control. Type of data set: cell-based, human. The method in brief: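 Patient-derived SMA fibroblasts are plated, given compound for 48 h, then lysed in RIPA buffer with protease inhibitors. Lysate Smn is detected by an anti-SMN d2/kryptate HTRF pair incubated overnight. The normalized ΔF is divided by the vehicle ΔF to give fold change, from which EC1.5× and maximum fold are taken.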
In general terms: In TR-FRET formats the signal depends on donor and acceptor labels being close together.

Data set [2] relates to SMN2 minigene mRNA (SMN2-A minigene) in HEK293H cells. Nature of the data set: SMN2 minigene mRNA splicing RT-qPCR assay in cultured cells. Type of data set: cell-based, human. The conditions noted are these: Homo sapiens, HEK293-H; concentration increasing full length SMN2 mRNA 1.5-fold relative to vehicle-treated cells; HEK293H cells with SMN2-A minigene, 24 hours, 7-point concentration data; read-out: EC1.5x for production of full length SMN2 mRNA. The procedure, abridged: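 Cells are seeded, left to attach 4-6 h, then dosed with test compound across seven concentrations and incubated 24 h. Lysates undergo RT-qPCR with primers/probe specific to the exon 7-containing minigene transcript, co-amplified with GAPDH. Fold change over vehicle is calculated, and EC1.5× marks the 1.5-fold point.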
(Quantitative PCR measures a nucleic acid by following its amplification.)

By melting point is commonly meant the temperature of the solid-liquid transition.

In the case of `COc1ccc(-c2cc(=O)n3cc(N4CCN[C@@H](C)C4)ccc3n2)cc1F` [Compound 87, 2-(3-fluoro-4-methoxyphenyl)-7-[(3S)-3-methylpiperazin-1-yl]-4H-pyrido[1,2-a]pyrimidin-4-one], the melting point was in the range of 175 to 178 °C. Besides, in data set [1], the “EC1.5x for Smn protein expression” value is “*** (an EC1.5× between >0.3 μM and ≤1 μM is indicated by three stars (***))”; the “maximum fold (Fold) increase of Smn protein” value (from here on “maximum fold (Fold) increase”) was “**** (a fold increase between >1.5 and ≤1.65 is indicated by four stars (****))”. The EC (1.5-fold increase) in data set [2] is 0.1 to 0.3 µM.
Take `C[C@H]1CN(c2ccc3nc(-c4cncc(F)c4)cc(=O)n3c2)CCN1` [Compound 93, 2-(5-fluoropyridin-3-yl)-7-[(3S)-3-methylpiperazin-1-yl]-4H-pyrido[1,2-a]pyrimidin-4-one]: the melting point fell in the range of 191 to 199 °C. Further, in data set [1], the “maximum fold (Fold) increase” value was “** (a fold increase between >1.2 and ≤1.35 is indicated by two stars (**))”. In addition, in data set [2], the EC (1.5-fold increase) fell in the range of 1 to 3 µM.
Consider `Cc1cn2cc(-c3cc(=O)n4cc(C5=CCNCC5)ccc4n3)ccc2n1` [Compound 429, 2-(2-methylimidazo[1,2-a]pyridin-6-yl)-7-(1,2,3,6-tetrahydropyridin-4-yl)-4H-pyrido[1,2-a]pyrimidin-4-one], for which the melting point is 206 to 208 °C. For the same molecule, in data set [1], the “EC1.5x for Smn protein expression” value is “**** (an EC1.5x≤0.3 μM is indicated by four stars (****))”; the “maximum fold (Fold) increase” value is “**** (a fold increase between >1.5 and ≤1.65 is indicated by four stars (****))”. Also, the EC (1.5-fold increase) in data set [2] was below 0.1 µM.
As for `Cc1cn2cc(-c3cc(=O)n4cc(C5CCNCC5)ccc4n3)ccc2n1` [Compound 438, 2-(2-methylimidazo[1,2-a]pyridin-6-yl)-7-(piperidin-4-yl)-4H-pyrido[1,2-a]pyrimidin-4-one], the melting point lay in the range of 298 to 300 °C. In data set [1], the “EC1.5x for Smn protein expression” value is on record as “**** (an EC1.5x≤0.3 μM is indicated by four stars (****))” and the “maximum fold (Fold) increase” value was “***** (a fold increase >1.65 is indicated by five stars (*****))”. In addition, the EC (1.5-fold increase) in data set [2] was below 0.1 µM.
Taken in the same sequence, the figures for `Cc1cn2cc(-c3cc(=O)n4cc(C5CCN(C(C)C)CC5)ccc4n3)cc(Cl)c2n1` [Compound 519, 2-(8-chloro-2-methylimidazo[1,2-a]pyridin-6-yl)-7-[1-(propan-2-yl)piperidin-4-yl]-4H-pyrido[1,2-a]pyrimidin-4-one] were 279 to 285 °C, “**** (an EC1.5x≤0.3 μM is indicated by four stars (****))”, “***** (a fold increase >1.65 is indicated by five stars (*****))” and below 0.1 µM.
With `Cc1nc2ccc(-c3cc(=O)n4cc(N5CCN(C)[C@H](C)C5)ccc4n3)cc2o1` [Compound 244, 7-[(3R)-3,4-dimethylpiperazin-1-yl]-2-(2-methyl-1,3-benzoxazol-6-yl)-4H-pyrido[1,2-a]pyrimidin-4-one], the melting point lay within 181 to 187 °C. Besides, in data set [1], the “EC1.5x for Smn protein expression” value is recorded as “**** (an EC1.5x≤0.3 μM is indicated by four stars (****))”; the “maximum fold (Fold) increase” value was “**** (a fold increase between >1.5 and ≤1.65 is indicated by four stars (****))”. In data set [2], the EC (1.5-fold increase) is below 0.1 µM.
Consider `CCCN(C)C1CC=C(c2ccc3nc(-c4ccc(OC)c(OC)c4)cc(=O)n3c2)CC1` (centres unmarked) [Compound 369, 2-(3,4-dimethoxyphenyl)-7-{4-[methyl(propyl)amino]cyclohex-1-en-1-yl}-4H-pyrido[1,2-a]pyrimidin-4-one], for which the melting point lay in the range of 116 to 118 °C. Besides, in data set [1], the “EC1.5x for Smn protein expression” value was “** (an EC1.5× between >1 μM and ≤3 μM is indicated by two stars (**))”; the “maximum fold (Fold) increase” value is “*** (a fold increase between >1.35 and ≤1.5 is indicated by three stars (***))”. The EC (1.5-fold increase) in data set [2] is below 0.1 µM.
Molecule `CCc1nc(C)cn2nc(-c3cc(=O)n4cc(N5CCN(CCF)[C@H](C)C5)ccc4n3)cc12` [Compound 666, 2-(4-ethyl-6-methylpyrazolo[1,5-a]pyrazin-2-yl)-7-[(3R)-4-(2-fluoroethyl)-3-methylpiperazin-1-yl]-4H-pyrido[1,2-a]pyrimidin-4-one] came in with a melting point of 255 to 257 °C. In data set [1], the “EC1.5x for Smn protein expression” value is “*** (an EC1.5× between >0.3 μM and ≤1 μM is indicated by three stars (***))”; the “maximum fold (Fold) increase” value is reported as “***** (a fold increase >1.65 is indicated by five stars (*****))”. The EC (1.5-fold increase) in data set [2] was in the range of 0.1 to 0.3 µM.
Turning to `Cc1cn2cc(-c3cc(=O)n4cc(N5CCN[C@@H](C)C5)ccc4n3)nc2cn1` [Compound 75, 2-(6-methylimidazo[1,2-a]pyrazin-2-yl)-7-[(3S)-3-methylpiperazin-1-yl]-4H-pyrido[1,2-a]pyrimidin-4-one], the melting point fell in the range of 235 to 238 °C. For the same molecule, in data set [1], the “EC1.5x for Smn protein expression” value was “**** (an EC1.5x≤0.3 μM is indicated by four stars (****))” and the “maximum fold (Fold) increase” value was “***** (a fold increase >1.65 is indicated by five stars (*****))”. In data set [2], the EC (1.5-fold increase) was below 0.1 µM.
`CCCc1nc(C)cn2nc(-c3cc(=O)n4cc(N5CCN(CCO)CC5)ccc4n3)cc12` [Compound 726, 7-[4-(2-hydroxyethyl)piperazin-1-yl]-2-(6-methyl-4-propylpyrazolo[1,5-a]pyrazin-2-yl)-4H-pyrido[1,2-a]pyrimidin-4-one]: the melting point lay in the range of 225 to 227 °C. Moreover, in data set [1], the “EC1.5x for Smn protein expression” value is “** (an EC1.5× between >1 μM and ≤3 μM is indicated by two stars (**))”; the “maximum fold (Fold) increase” value is “**** (a fold increase between >1.5 and ≤1.65 is indicated by four stars (****))”. The EC (1.5-fold increase) in data set [2] lay within 0.3 to 1 µM.
Take `Cc1cn2nc(-c3cc(=O)n4cc(N5CCN[C@H](C)C5)cc(C)c4n3)cc2c(C)n1` [Compound 509, 2-(4,6-dimethylpyrazolo[1,5-a]pyrazin-2-yl)-9-methyl-7-[(3R)-3-methylpiperazin-1-yl]-4H-pyrido[1,2-a]pyrimidin-4-one]: the melting point lay within 213 to 222 °C. Also, in data set [1], the “EC1.5x for Smn protein expression” value is “*** (an EC1.5× between >0.3 μM and ≤1 μM is indicated by three stars (***))”; the “maximum fold (Fold) increase” value is “**** (a fold increase between >1.5 and ≤1.65 is indicated by four stars (****))”. Besides, the EC (1.5-fold increase) in data set [2] is below 0.1 µM.
In the case of `COc1ccc(-c2ccc3nc(C4=CCNCC4)cc(=O)n3c2)cc1F` [Cpd 294, 7-(3-fluoro-4-methoxyphenyl)-2-(1,2,3,6-tetrahydropyridin-4-yl)-4H-pyrido[1,2-a]pyrimidin-4-one], the melting point was 188 to 192 °C. Besides, in data set [1], the “EC1.5x for Smn protein expression” value is “* (An EC1.5× for Smn protein expression between >3 μM and ≤10 μM is indicated by one star (*))”; the “maximum fold (Fold) increase” value was “*** (a fold increase between >1.35 and ≤1.5 is indicated by three stars (***))”. For the same molecule, the EC (1.5-fold increase) in data set [2] is below 0.1 µM.
`COc1ccc(-c2ccc3nc(N4CC[C@H](N(C)C)C4)cc(=O)n3c2)cc1F` [Compound 278, 2-[(3S)-3-(dimethylamino)pyrrolidin-1-yl]-7-(3-fluoro-4-methoxyphenyl)-4H-pyrido[1,2-a]pyrimidin-4-one] registered a melting point of 167 to 169 °C. The “maximum fold (Fold) increase” value in data set [1] is “** (a fold increase between >1.2 and ≤1.35 is indicated by two stars (**))”. The EC (1.5-fold increase) in data set [2] was 1 to 3 µM.
Regarding `COc1ccc(-c2cc(=O)n3cc(N4CCNCC4)ccc3c2C#N)cc1OC` [Cpd 85, 2-(3,4-dimethoxyphenyl)-4-oxo-7-(piperazin-1-yl)-4H-quinolizine-1-carbonitrile], the melting point fell in the range of 199 to 202 °C. In addition, in data set [1], the “EC1.5x for Smn protein expression” value was “* (An EC1.5× for Smn protein expression between >3 μM and ≤10 μM is indicated by one star (*))”; the “maximum fold (Fold) increase” value was “*** (a fold increase between >1.35 and ≤1.5 is indicated by three stars (***))”. For the same molecule, the EC (1.5-fold increase) in data set [2] was in the range of 1 to 3 µM.
For the molecule `CCc1nc(C)cn2nc(-c3cc(=O)n4cc(C5CCN(C(CO)CO)CC5)ccc4n3)cc12` [Cpd 694, 7-[1-(1,3-dihydroxypropan-2-yl)piperidin-4-yl]-2-(4-ethyl-6-methylpyrazolo[1,5-a]pyrazin-2-yl)-4H-pyrido[1,2-a]pyrimidin-4-one], the melting point lay in the range of 228 to 230 °C. Further, in data set [1], the “EC1.5x for Smn protein expression” value is “**** (an EC1.5x≤0.3 μM is indicated by four stars (****))” and the “maximum fold (Fold) increase” value was “***** (a fold increase >1.65 is indicated by five stars (*****))”. Besides, in data set [2], the EC (1.5-fold increase) is below 0.1 µM.
The corresponding values for `CCCNC1CCN(c2cc(C)c3nc(-c4cc5c(C)nc(C)cn5n4)cc(=O)n3c2)CC1` [Compound 583, 2-(4,6-dimethylpyrazolo[1,5-a]pyrazin-2-yl)-9-methyl-7-[4-(propylamino)piperidin-1-yl]-4H-pyrido[1,2-a]pyrimidin-4-one] are 231 to 241 °C, “**** (an EC1.5x≤0.3 μM is indicated by four stars (****))”, “***** (a fold increase >1.65 is indicated by five stars (*****))” and below 0.1 µM.
